# Measurements from US20100099630A1, “Method for improving ventilatory efficiency” (priority 2004, published 2010).
# Legend:
# Type in all cases: in vivo, human
# [1] = system: patients presenting with chronic obstructive pulmonary disease; test: Pulmonary function during moderate sub-maximum step exercise, COPD patients; conditions: for VD/VT: post ribose five grams four times a day; for VD/VT / VT/RR / VCO2 / VTBTPS (tidal volume) / VT/ti (inspiratory drive): eight weeks; for VT/RR / VCO2 / VTBTPS (tidal volume) / VT/ti (inspiratory drive): post ribose
# Protocol: Four patients presenting with chronic obstructive pulmonary disease were tested for various parameters of pulmonary function as described in Example 1. Baseline measurements of pulmonary function were taken during moderate, sub-maximum step exercise. Patients were instructed to self-administer five grams of ribose four times a day. After eight weeks, pulmonary function was again measured during moderate exercise. In Table II, the units are: • VD=volume of the dead space; VT=tidal volume in liters per minute. The ratio VD/VT can be expressed as ml/ml. This ratio is taken at the nadir of sub-maximal exercise and is a measure of lung function. • VT=tidal volume in liters; RR=breaths per minute • VT=volume in ml at each inspiration, ti=inspiratory time. VT/ti is the inspiratory drive (effort) in ml/second. • VT=tidal volume in liters at constant body temperature pressure status. • VCO2=liters/minute of expired CO2 • RR=breaths per minute. VT/RR=tidal volume in liters per breath.
# [2] = system: patient with rheumatoid lung; test: Ventilatory efficiency in rheumatoid lung, case report; conditions: person, ribose approximately five grams two to three times a day, within a month
# From the text: A person developed rheumatoid arthritis in the 1970's. By 1988, they began to show symptoms of rheumatoid lung, began the use of rescue inhalers such as Albuterol® inhaler and was hospitalized for respiratory distress three times in the next five years. At that point, they were prescribed Advair® steroid inhaler, which relieved their symptoms considerably, although they still required a rescue inhaler several times per week. In 2002, they began the administration of ribose, approximately five grams two to three times a day.
# [3] = system: patient at risk for COPD (No COPD); test: Pulmonary function during moderate sub-maximum step exercise, patient without COPD; conditions: Patient 5, No COPD, post ribose
# Protocol: Four patients presenting with chronic obstructive pulmonary disease were tested for various parameters of pulmonary function as described in Example 1. Baseline measurements of pulmonary function were taken during moderate, sub-maximum step exercise. Patients were instructed to self-administer five grams of ribose four times a day. After eight weeks, pulmonary function was again measured during moderate exercise.
# In Table II, the units are: • VD=volume of the dead space; VT=tidal volume in liters per minute. The ratio VD/VT can be expressed as ml/ml. This ratio is taken at the nadir of sub-maximal exercise and is a measure of lung function. • VT=tidal volume in liters; RR=breaths per minute • VT=volume in ml at each inspiration, ti=inspiratory time. VT/ti is the inspiratory drive (effort) in ml/second. • VT=tidal volume in liters at constant body temperature pressure status. • VCO2=liters/minute of expired CO2 • RR=breaths per minute. VT/RR=tidal volume in liters per breath.
# Table II illustrates that no one measurement or ratio is predictive of the clinical state of COPD and response to ribose administration. […] One goal of this study was to determine whether the progression of pulmonary dysfunction in such a patient could be slowed or halted over time.
# patients having CHF = test: Ventilatory efficiency during cardiopulmonary exercise testing, CHF patients
# Protocol: Ventilatory efficiency has been critically shown to be the most powerful, independent predictor of CHF patient survival. Ventilatory efficiency (VE) is determined by the linear, submax relationship between Minute Ventilation (V) and carbon dioxide output (VCO2), V being on the “y axis” and the linear slope being determined using the linear regression model, y=a+bx, “b” representing the slope. The steeper the slope, the worse the ventilation efficiency of the patient. As an exemplar cohort of patients with reduced ventilatory efficiency, patients suffering from CHF were recruited. Patients having CHF were selected according to the following criteria: • Male and female 48-84 years of age. • Ejection fraction 30-72% • NY Class III-IV (severe condition). • Test and control groups matched for pre-operative volume status, cardiac medication, measured risk assessment. The test group was administered D-ribose, 15 grams tid for eight weeks; the controls received 15 grams Dextrose tid. All patients in this group underwent repeated cardiopulmonary exercise using a four-minute sub-maximal step protocol. Patients were tested on a step apparatus. Others in the study were tested on a treadmill with varied grade or on drug-driven exercise simulation for those patients unable to use the other two devices. Symptom-limited peak exercise performance with at least 80-85% of age related maximal heart rate was attempted with each patient. Upper extremity blood pressure was obtained at every two minutes and also at peak exercise. Patients were tested on a treadmill with varying grade, on a step apparatus or with simulated drug-driven exercise simulation for those patients unable to exercise physically. VCO2 and VO2max before and after exercise was measured and VE calculated. The methodology is described in Circulation: www.circulationaha.org Ponikowski et al. Ventilation in Chronic Heart Failure, Feb. 20, 2001, the teachings of which are incorporated by reference. Ventilatory efficiency, VO2 and O2 pulse were assessed up to the anaerobic threshold at baseline and again at eight weeks. Weber function class was also determined based on VO2 at the anaerobic threshold (AT). The results for the first group of test patients (2 females and 13 males) are summarized in Table I. “R” designates D-ribose. Each patient acted as his or her control, that is, results after ribose administration were compared to baseline results. VO2 efficiency is the O2 uptake per unit time. O2 pulse is a measurement of the heart stroke volume.
# [4] = system: representative patients (coronary artery disease / CHF cohort); test: Exercise testing of representative individual patients (treadmill, step test, drug-driven simulated exercise)
# Protocol: Patients were tested on a treadmill with varying grade, on a step apparatus or with simulated drug-driven exercise simulation for those patients unable to exercise physically. VCO2 and VO2max before and after exercise was measured and VE calculated. The methodology is described in Circulation: www.circulationaha.org Ponikowski et al. Ventilation in Chronic Heart Failure, Feb. 20, 2001, the teachings of which are incorporated by reference. Ventilatory efficiency, VO2 and O2 pulse were assessed up to the anaerobic threshold at baseline and again at eight weeks. Weber function class was also determined based on VO2 at the anaerobic threshold (AT). The results for the first group of test patients (2 females and 13 males) are summarized in Table I. “R” designates D-ribose. Each patient acted as his or her control, that is, results after ribose administration were compared to baseline results. VO2 efficiency is the O2 uptake per unit time. O2 pulse is a measurement of the heart stroke volume. A person, normal weight, was diagnosed with blockage of the coronary arteries with stable angina, not yet progressing to congestive heart failure. […] Using a treadmill, with incremental increase in grade, their VO2 max and VCO2 were determined. Following eight weeks of ribose administration of five grams four times a day, they were retested under the same conditions. Plotting a regression analysis of VO2 versus log V, the VE slope decreased from 60.2 to 45.5. It is considered that a slope of 36.9 or below indicates impairment of ventilatory efficiency. Therefore, while this patient was not in the normal range of ventilatory efficiency, improvement was marked. A second patient, a person of normal weight, self administered five grams of ribose four times a day for eight weeks. At the beginning of the study, their VE slope was 55.7 following nine minutes of submaximal exercise. At the end of the study, their VE slope had decreased to 45.2. This patient also was tested on the step test. The initial test was rated as “good” and the second test was subjectively considered to be “great.” A third patient, an obese person, was on nasal oxygen and was tested with drug-driven simulated exercise. […] Although their VE was now in the normal range, the test results, although improved were not subjectively rated as “good”.
# [5] = FIG. 2, single patient, after eight weeks of ribose supplementation, during exercise
structure (smiles),measurement,setting,value
O=C[C@H](O)[C@H](O)[C@H](O)CO [D-ribose],slope of respiratory rate plotted against tidal volume,"[1]; FIG. 1, single patient, after eight weeks of ribose supplementation",decreased slope
same,VE value,[1]; [5],42 L/min
same,tidal volume,[1]; [5],0.9 L
same,VD/VT,"[1]; Patient 1 (asthmatic with COPD), nadir of sub-maximal exercise, baseline 0.304",0.253 ml/ml
same,VT/RR,"[1]; Patient 1, baseline 0.059",0.065 liters per breath
same,VCO2,"[1]; Patient 1, baseline 1.038",1.050 L/min
same,VTBTPS (tidal volume),"[1]; Patient 1, baseline 1.54",1.92 L
same,VT/ti (inspiratory drive),"[1]; Patient 1, baseline 1492",1827 mL/s
same,VD/VT,"[1]; Patient 2 (COPD), baseline 0.439",0.303 ml/ml
same,VT/RR,"[1]; Patient 2, baseline 0.036",0056 liters per breath
same,VCO2,"[1]; Patient 2, baseline 0.460",0.460 L/min
same,VTBTPS (tidal volume),"[1]; Patient 2, baseline 0.830",1.04 L
same,VT/ti (inspiratory drive),"[1]; Patient 2, baseline 779",752 mL/s
same,VD/VT,"[1]; Patient 3 (COPD), baseline 0.198",0.221 ml/ml
same,VT/RR,"[1]; Patient 3, baseline 0.041",0.046 liters per breath
same,VCO2,"[1]; Patient 3, baseline 0.280",0.454 L/min
same,VTBTPS (tidal volume),"[1]; Patient 3, baseline 0.614",0.873 L
same,VT/ti (inspiratory drive),"[1]; Patient 3, baseline 373",706 mL/s
same,VD/VT,"[1]; Patient 4 (COPD), baseline 0.475",0.280 ml/ml
same,VT/RR,"[1]; Patient 4, baseline 0.013",0.018 liters per breath
same,VCO2,"[1]; Patient 4, baseline 0.310",0.814 L/min
same,VTBTPS (tidal volume),"[1]; Patient 4, baseline 0.550",0.800 L
same,VT/ti (inspiratory drive),"[1]; Patient 4, baseline 937",1590 mL/s
same,use of rescue inhaler and exercise tolerance,[2],able to discontinue the use of the rescue inhaler and to exercise more without breathlessness symptoms
same,VT/RR,[3]; baseline 0.090,0.100 liters per breath
same,VD/VT,[3]; baseline 0.212,0.221 ml/ml
same,VCO2,[3]; baseline 0.990,1.26 L/min
same,VTBTPS (tidal volume),[3]; baseline 1.90,2.40 L
same,VT/ti (inspiratory drive),[3]; baseline 1636,2232 mL/s
same,VO2 uptake efficiency,"patients having CHF; Post-R: D-ribose 15 grams tid for eight weeks, 2 females and 13 males, Pre-R 1.00 +/− 0.28, p < 0.028",1.30 +/− 0.28
same,O2 pulse,"patients having CHF; Post-R: D-ribose 15 grams tid for eight weeks, 2 females and 13 males, Pre-R 7.45 +/− 1.8, p < 0.05",9.04 +/− 1.9
same,Ventilatory efficiency,"patients having CHF; Post-R: D-ribose 15 grams tid for eight weeks, 2 females and 13 males, up to anaerobic threshold, Pre-R 50.6 +/− 9.8, p < 0.01",41.6 +/− 6.4
same,improvement of VE,patients having CHF; after eight weeks of D-ribose versus baseline,about 20%
same,Weber functional class,"patients having CHF; based on VO2 at the anaerobic threshold, several of the patients, after eight weeks","reclassified into a higher, that is, less severe, Weber functional class"
same,VE slope,"[4]; obese person on nasal oxygen, drug-driven simulated exercise, ribose five grams four times daily, eight weeks, baseline 63.0",35.2
same,need for nasal oxygen,"[4]; obese person, ribose five grams four times daily, eight weeks",able to discontinue the oxygen
same,time of simulated exercise,"[4]; obese person, ribose five grams four times daily, eight weeks, baseline 7.43 minutes",11.44 min
same,VE slope,"[4]; person, coronary artery blockage with stable angina, treadmill, ribose five grams four times a day, eight weeks, baseline 60.2",45.5
same,VE slope,"[4]; person, nine minutes of submaximal exercise, ribose five grams four times a day, eight weeks, baseline 55.7",45.2
same,step test subjective rating,"[4]; person, second test after eight weeks of ribose, initial test rated good",great
